Reference: patent US20130310347A1, “MULTI-MODALITY MOLECULAR IMAGING HIGH-THROUGHPUT ASSAY FOR IDENTIFYING HEAT SHOCK PROTEIN 90 (HSP90) INHIBITORS” (The Board of Trustees of the Leland Stanford Junior …, priority 2012, published 2013)

Key:
1975, 2008, HT29 cells = experiment: 3H-FLT cell uptake (mammalian thymidine kinase activities); assay type: cell-based; details: 48 h post treatment
Description: FIG. 10D is a graph illustrating the effect of CP9 on mammalian thymidine kinase activities in 1975, 2008, HT29, and MEFs cells as determined by ^3H-FLT cell uptake studies 48 h post treatment. Results were expressed as mean counts per minute/μg protein/initial dose±S.E.M. *, p<0.05 vs. carrier control treated cells.
To determine the specificity of CP9 in inhibition of glucose metabolism, normal MEF cells were used as a control.
To determine the downstream effects of lead compounds on glucose metabolism, 1.5×10^5 293T, 1975 and 2008 and MEFs cells plated in 24-well plate for 24 h, prior to treatment with different concentrations of CP9 for 24 or 48 h and subsequent incubation with 1 μCi of ^3H-FDG in 500 μl of medium for 1 h at 37° C. Cells treated with 2.5 μM of PU-H71 served as a positive control. The total counts in each sample were normalized to that of the dose added to each well and to the amount of protein, and expressed as mean counts/dose/μg protein±S.E.M. Likewise, the effect of CP9 on cell proliferation was determined using 1 μCi of ^3H-FLT per well after 2 h of incubation at 37° C.

[1] = tested on: phosphorylated/total Akt and Raf-1; experiment: Western blotting of Hsp90 client proteins in multiple cancer cell lines; assay type: cell-based, human; details: BT474/MCF-7/SK-Br3, 1975, HT1080, 4-4/HUH7, PC3, 2008, U87MG, HT29
From the text: FIGS. 10A and 10B show the effect of CP9 on the expression of Raf-1, phosphorylated Akt, and total Akt in 1975 lung cancer, BT474 breast cancer and HuH-7 liver cancer as determined by western blotting. α-Tubulin was used as the loading control.
CP9 had no effect on the expression of the Hsp90 client proteins in normal mouse embryonic fibroblasts (MEF) cells (FIG. 10C).

normal MEFs = experiment: Alamar Blue cell proliferation; assay type: cell-based, mouse
From the text: CP9 had no effect on proliferation of normal MEFs. Since CP9 led to decrease in phosphorylated Akt (FIGS. 5A and 10A-10C), it was expected to inhibit glucose metabolism through relief of inhibition of glycogen synthase kinase […] (Nair & Olanow (2008) J. Biol. Chem. M707238200; Dandekar et al., (2007) J. Nucl. Med. 48: 602-607).

cellular Hsp90 = experiment: 3H-17AAG uptake in intact HT29 cells; assay type: cell-based; details: CP9 0.4 to 12.5 μM, 3H-17AAG 0.5 μM, 1 h, dose-dependent, p<0.05
Description: FIG. 5D is a graph illustrating the inhibition of ^3H-17AAG uptake by CP9 in HT29 cells. HT29 cells were pre-incubated with different concentrations of CP9 together with ^3H-17AAG (0.5 μM) for 1 h followed by 1 h of wash-out of unbound ^3H-17AAG in fresh medium. The amount of ^3H-17-AAG incorporated intracellularly was determined by scintillation counting of cell lysates, followed by normalization for protein content and to carrier control-treated cells. Cells incubated with 5 μM of PU-H71 served as a positive control. Results are expressed as means of triplicates±S.E.M. *, p<0.05 vs. carrier control-treated cells.
To confirm the direct binding of CP9 to Hsp90(α/β), an in vitro competitive binding assay using purified Hsp90α and Hsp90β was performed using radiolabeled Hsp90 inhibitor ^3H-17AAG. Hsp90 proteins were pre-bound with CP9 or cold 17-AAG as a control prior to incubation with ^3H-17AAG. Unbound ^3H-17AAG was removed and the amount of ^3H-17AAG bound to the Hsp90 proteins was determined. […]
To determine if CP9 binds to cellular Hsp90, an uptake study of ^3H-17AAG (Moravek Biochemicals, Brea, Calif.) was performed. […] The total counts in each sample were normalized to that of the dose added to each well and to the amount of protein, and expressed as mean counts/dose/μg protein±S.E.M.

Cc1cc(NC(=O)CSc2nc(-c3cccs3)cc(C(F)(F)F)n2)no1 [CP9, N-(5-methylisoxazol-3-yl)-2-(4-(thiophen-2-yl)-6-(trifluoromethyl)pyrimidin-2-ylthio)acetamide] was tested, and the “3H-FLT uptake in cancer cell lines” value (1975, 2008, HT29 cells) was “inhibits”, the “degradation of phosphorylated/total Akt and Raf-1” value [1] was “various levels of degradation” and the “proliferation of normal MEFs” value (normal MEFs) was “no effect”. The “maximum reduction in uptake of 3H-17AAG relative to carrier control” value (cellular Hsp90) was 30%.
